Earlier results on one compound are cited in patent publication US12427145B2, “Controlled release pharmaceutical composition of Selexipag or it's active metabolite” (Innovate Therapeutics LLC, priority 2019, dated 2025).

Read-outs that look alike come from different tables or passages of the source.

The conditions of data set [1]: fasting condition.
The conditions of data set [2]: study AC-065A303, 52 subjects out of 218 subjects.
For data set [3] the following is noted: oral immediate release dosage form, out of 575 subjects.

As for `CC(C)N(CCCCOCC(=O)NS(C)(=O)=O)c1cnc(-c2ccccc2)c(-c2ccccc2)n1` [Selexipag], the “subjects reporting Headache” value in data set [1] (200 μg Selexipag, 1 out of 6 subjects) is recorded as 17%. In data set [1] (600 μg Selexipag, 2 out of 6 subjects), the “subjects reporting Headache” value was 33%. Moreover, the “subjects reporting Headache” value in data set [1] (800 μg Selexipag, 5 out of 6 subjects) is 83%. For the same compound, in data set [2], the “subjects with at least 1 adverse event leading to discontinuation of study drug” value is listed as 24%. In addition, in data set [3], the “Arthralgia, subjects” value is given as 11%; the “Diarrhea, subjects” value is given as 42%; the “Flushing, subjects” value was 12%; the “Headache, subjects” value is on record as 65%. Besides, in data set [3], the “Jaw pain, subjects” value is on record as 26%; the “Myalgia, subjects” value is 16%; the “Nausea, subjects” value is given as 33%; the “Pain in Extremity, subjects” value was 17%. Moreover, in data set [3], the “Rash, subjects” value was 11% and the “Vomiting, subjects” value is 18%.
